Measured values as given in patent US11345673B2, “1-phenylpropanone compounds and use thereof” (UNIVERSITA' DEGLI STUDI DI PADOVA, priority 2016, dated 2022).
pIC50: −log10 of the molar value.

Assays:
[1] = system: breast cancer and multiple myeloma cells; settings: cited from earlier work
[2] = system: S1P1 receptor; test: Immunosuppressive effect: Western blot of S1P1 receptor in LLC cells; type: cell-based, human; settings: incubation for discrete times (3 hours, 12 hours)
Method: To this end, LLC cells (5×10^5 per well) were seeded and cultured on 12-well plates in RPMI-1640 medium, 10% FBS, at 37° C. in a humidified atmosphere containing 5% CO2, adding to the culture the various test compounds. Incubation was conducted for discrete times, at the end of which the cells were lysed to submit the protein content to Western blot analysis with antibodies that specifically recognize the S1P1 receptor.

Row | Structure (SMILES) | pIC50 ([1]; breast cancer and multiple myeloma cells, articles of D. Ju et al., read-out: induction of caspase-dependent apoptosis (IC50 values)) | cytotoxic effects of dyclonine alone ([1]; in vitro, alone without MG132 or bortezomib) | S1P1 receptor expression (Western blot, FIG. 1) [2]
1 | CCCCOc1ccc(C(=O)CCN2CCCCC2)cc1 [dyclonine] | 4.52 to 4.82 | very limited cytotoxic effects | 
2 | CCCCCCCCc1ccc(CCC(N)(CO)CO)cc1.Cl [FTY720, 2-amino-2[2-(4-octylphenyl)ethyl]propane-1,3-diol hydrochloride] |  |  | induces a rapid decrease of S1P1 receptor
